Source: ChEMBL document CHEMBL2412952, “2-Substituted 4-hydroxybutanamides as potential inhibitors of γ-aminobutyric acid transporters mGAT1-mGAT4: synthesis and biological evaluation” (Bioorg Med Chem, 2013)

Key:
[1] = Inhibition of mouse GAT4-mediated [3H]GABA uptake stably transfected in HEK293 cells; type: cell-based
[2] = biological target: Sodium- and chloride-dependent GABA transporter 1 (Mus musculus) (UniProt P31648); test: Binding affinity to mouse GAT1 stably transfected in HEK293 cells assessed as residual binding at 100 uM relative to control; type: cell-based
[3] = biological target: T1, Sodium- and chloride-dependent GABA transporter 1 (Mus musculus, UniProt P31648); test: Inhibition of mouse GAT1-mediated [3H]GABA uptake stably transfected in HEK293 cells; type: cell-based
[4] = biological target: T1, Sodium- and chloride-dependent GABA transporter 1; test: Binding affinity to mouse GAT1 stably transfected in HEK293 cells by NO-711 binding assay; type: cell-based
[5] = tested on: GABA transporter 2 (Mus musculus); test: Inhibition of mouse GAT2-mediated [3H]GABA uptake stably transfected in HEK293 cells assessed as residual uptake at 100 uM relative to control
[6] = tested on: HEK293; test: Inhibition of mouse GAT4-mediated [3H]GABA uptake stably transfected in HEK293 cells assessed as residual uptake at 100 uM relative to control; type: cell-based
[7] = biological target: Sodium- and chloride-dependent GABA transporter 1 (Mus musculus) (UniProt P31648); test: Inhibition of mouse GAT1-mediated [3H]GABA uptake stably transfected in HEK293 cells assessed as residual uptake at 100 uM relative to control; type: cell-based
[8] = tested on: GABA transporter 3 (Mus musculus); test: Inhibition of mouse GAT3-mediated [3H]GABA uptake stably transfected in HEK293 cells assessed as residual uptake at 100 uM relative to control

Q: Which IC50 [1] does the source give for CN(CCC=C(c1ccccc1)c1ccccc1)C(CCO)C(=O)NCc1ccccc1Cl (stereo unspecified) here?
A: The IC50 was 10 µM.

Q: And the Activity [2]?
A: Its Activity is 54%.

Q: What about the IC50 [3] of the same compound?
A: Its IC50 is 19.1 µM.

Q: Which results are given for CN(CCC=C(c1ccccc1)c1ccccc1)C(CCO)C(=O)NCc1ccccc1 (stereo unspecified)?
A: IC50 [1]: 22.9 µM; Activity [2]: 50%; IC50 [3]: 10.5 µM

Q: Which IC50 [1] does the source give for O=C(NCc1ccccc1)C(CCO)NCCCC(c1ccccc1)c1ccccc1 (stereo unspecified) here?
A: Its IC50 is 38.9 µM.

Q: What about the Activity [2] of the same compound?
A: The Activity was 62%.

Q: And the IC50 [3]?
A: Its IC50 is 61.7 µM.

Q: Which Ki [4] does the source give for Cc1ccc(CNC(=O)C(CCO)N(C)CCCC(c2ccccc2)c2ccccc2)cc1 (stereo unspecified) here?
A: Its Ki is 81.3 µM.

Q: What about the IC50 [1] of the same compound?
A: Its IC50 is 20.4 µM.

Q: What about the IC50 [3] of the same compound?
A: The IC50 was 37.2 µM.

Q: What does the source list for C[C@@H](O)C[C@H](C(=O)NCc1ccc(F)cc1)N1CCC(=C(c2ccccc2)c2ccccc2)CC1 (relative stereo)?
A: Ki [4]: 42.7 µM; IC50 [1]: 41.7 µM; IC50 [3]: 16.2 µM

Q: For CN(CCCC(c1ccccc1)c1ccccc1)C(CCO)C(=O)NCc1ccc(F)cc1 (stereo unspecified), which IC50 [1] is on record?
A: Its IC50 is 58.9 µM.

Q: And the Activity [2]?
A: The Activity was 74%.

Q: What about the IC50 [3] of the same compound?
A: The IC50 was 97.7 µM.

Q: With C[C@@H](O)C[C@H](C(=O)NCc1ccccc1)N1CCC(=C(c2ccccc2)c2ccccc2)CC1 (relative stereo) as the compound, how does the IC50 [1] read?
A: Its IC50 is 89.1 µM.

Q: And the Activity [2]?
A: Its Activity is 50%.

Q: And the IC50 [3]?
A: Its IC50 is 7.76 µM.

Q: With Cc1ccc(CNC(=O)C(CCO)N2CCC(=C(c3ccccc3)c3ccccc3)CC2)cc1 (stereo unspecified) as the compound, how does the Ki [4] read?
A: The Ki was 43.7 µM.

Q: What about the IC50 [1] of the same compound?
A: The IC50 was 33.9 µM.

Q: What about the IC50 [3] of the same compound?
A: Its IC50 is 38 µM.

Q: Which Activity [5] does the source give for O=C(NCc1ccccc1)C(CCO)N1CCC(C(c2ccccc2)c2ccccc2)CC1 (stereo unspecified) here?
A: Its Activity is 51%.

Q: And the IC50 [1]?
A: The IC50 was 58.9 µM.

Q: And the Activity [2]?
A: Its Activity is 55%.

Q: What about the IC50 [3] of the same compound?
A: The IC50 was 13.2 µM.

Q: For Cc1ccsc1C(=CCCN1CCC[C@@H](C(=O)O)C1)c1sccc1C [TIAGABINE], which Ki [4] is on record?
A: Its Ki is 0.0389 µM.

Q: And the Activity [6]?
A: The Activity was 73%.

Q: For O=C(NCc1ccc(Cl)cc1)C(CCO)N1CCC(C(c2ccccc2)c2ccccc2)CC1 (stereo unspecified), which IC50 [1] is on record?
A: Its IC50 is 69.2 µM.

Q: And the Activity [2]?
A: The Activity was 68%.

Q: And the IC50 [3]?
A: Its IC50 is 24 µM.

Q: With CN(CCCC(c1ccccc1)c1ccccc1)C(CCO)C(=O)NCc1ccccc1Cl (stereo unspecified) as the compound, how does the IC50 [1] read?
A: Its IC50 is 25.7 µM.

Q: And the Activity [2]?
A: The Activity was 85%.

Q: And the IC50 [3]?
A: Its IC50 is 37.2 µM.

Q: What does the source list for C[C@H](O)C[C@H](C(=O)NCc1ccccc1)N1CCC(=C(c2ccccc2)c2ccccc2)CC1 (relative stereo)?
A: IC50 [1]: 72.4 µM; Activity [2]: 51%; IC50 [3]: 24 µM

Q: For CN(CCC=C(c1ccccc1)c1ccccc1)C(CCO)C(=O)NCc1ccc(Cl)cc1 (stereo unspecified), which IC50 [1] is on record?
A: Its IC50 is 11.2 µM.

Q: What about the Activity [2] of the same compound?
A: The Activity was 61%.

Q: What about the IC50 [3] of the same compound?
A: The IC50 was 23.4 µM.

Q: For O=C(NCc1ccccc1Cl)C(CCO)N1CCC(C(c2ccccc2)c2ccccc2)CC1 (stereo unspecified), which IC50 [1] is on record?
A: Its IC50 is 67.6 µM.

Q: What about the Activity [2] of the same compound?
A: The Activity was 89%.

Q: What about the IC50 [3] of the same compound?
A: Its IC50 is 19.5 µM.

Q: What does the source list for C[C@H](O)C[C@H](C(=O)NCc1ccc(Cl)cc1)N1CCC(=C(c2ccccc2)c2ccccc2)CC1 (relative stereo)?
A: IC50 [1]: 69.2 µM; Activity [2]: 69%; IC50 [3]: 66.1 µM

Q: Which IC50 [1] does the source give for O=C(NCc1ccc(F)cc1)C(CCO)NCCCC(c1ccccc1)c1ccccc1 (stereo unspecified) here?
A: The IC50 was 25.1 µM.

Q: And the Activity [2]?
A: The Activity was 82%.

Q: And the IC50 [3]?
A: The IC50 was 38.9 µM.

Q: Which Activity [2] does the source give for C[C@H](O)C[C@H](C(=O)NCc1ccc(F)cc1)N1CCC(=C(c2ccccc2)c2ccccc2)CC1 (relative stereo) here?
A: The Activity was 52%.

Q: And the IC50 [3]?
A: Its IC50 is 34.7 µM.

Q: What about the Activity [6] of the same compound?
A: Its Activity is 65%.

Q: With CN(CCC=C(c1ccccc1)c1ccccc1)C(CCO)C(=O)NCc1ccc(F)cc1 (stereo unspecified) as the compound, how does the IC50 [1] read?
A: Its IC50 is 20 µM.

Q: What about the Activity [2] of the same compound?
A: The Activity was 73%.

Q: What about the IC50 [3] of the same compound?
A: Its IC50 is 21.9 µM.

Q: Which Activity [5] does the source give for C[C@H](O)C[C@H](C(=O)NCc1ccccc1Cl)N1CCC(=C(c2ccccc2)c2ccccc2)CC1 (relative stereo) here?
A: Its Activity is 73%.

Q: And the Activity [2]?
A: The Activity was 95%.

Q: What about the Activity [7] of the same compound?
A: Its Activity is 47%.

Q: And the Activity [6]?
A: Its Activity is 71%.

Q: What does the source list for O=C(NCc1ccccc1Cl)C(CCO)N1CCC(=C(c2ccccc2)c2ccccc2)CC1 (stereo unspecified)?
A: IC50 [1]: 67.6 µM; Activity [2]: 68%; Activity [7]: 58%

Q: With Cc1ccc(CNC(=O)C(CCO)N(C)CCC=C(c2ccccc2)c2ccccc2)cc1 (stereo unspecified) as the compound, how does the IC50 [1] read?
A: Its IC50 is 16.6 µM.

Q: And the Activity [2]?
A: The Activity was 50%.

Q: What about the IC50 [3] of the same compound?
A: The IC50 was 22.4 µM.

Q: Which results are given for O=C(NCc1ccc(F)cc1)C(CCO)N1CCC(C(c2ccccc2)c2ccccc2)CC1 (stereo unspecified)?
A: IC50 [1]: 81.3 µM; Activity [2]: 49%; IC50 [3]: 18.2 µM

Q: Which results are given for O=C(NCc1ccccc1Cl)C(CCO)NCCCC(c1ccccc1)c1ccccc1 (stereo unspecified)?
A: Ki [4]: 46.8 µM; IC50 [1]: 20.9 µM; IC50 [3]: 33.1 µM

Q: What does the source list for O=C(NCc1ccc(Cl)cc1)C(CCO)N1CCC(=C(c2ccccc2)c2ccccc2)CC1 (stereo unspecified)?
A: Ki [4]: 75.9 µM; IC50 [1]: 17.8 µM; IC50 [3]: 33.9 µM

Q: With Cc1ccc(CNC(=O)[C@@H](C[C@@H](C)O)N2CCC(=C(c3ccccc3)c3ccccc3)CC2)cc1 (relative stereo) as the compound, how does the Activity [2] read?
A: The Activity was 58%.

Q: What about the Activity [7] of the same compound?
A: The Activity was 46%.

Q: What does the source list for O=C(NCc1ccc(Cl)cc1)C(CCO)NCCCC(c1ccccc1)c1ccccc1 (stereo unspecified)?
A: Ki [4]: 56.2 µM; IC50 [1]: 16.6 µM; IC50 [3]: 23.4 µM

Q: Which IC50 [1] does the source give for Cc1ccc(CNC(=O)[C@@H](C[C@H](C)O)N2CCC(=C(c3ccccc3)c3ccccc3)CC2)cc1 (relative stereo) here?
A: Its IC50 is 34.7 µM.

Q: And the Activity [2]?
A: The Activity was 57%.

Q: And the IC50 [3]?
A: The IC50 was 53.7 µM.

Q: With Cc1ccc(CNC(=O)C(CCO)N2CCC(C(c3ccccc3)c3ccccc3)CC2)cc1 (stereo unspecified) as the compound, how does the IC50 [1] read?
A: Its IC50 is 87.1 µM.

Q: What about the Activity [2] of the same compound?
A: Its Activity is 55%.

Q: What about the IC50 [3] of the same compound?
A: The IC50 was 30.2 µM.

Q: For Cc1ccc(CNC(=O)C(CCO)NCCCC(c2ccccc2)c2ccccc2)cc1 (stereo unspecified), which Ki [4] is on record?
A: Its Ki is 51.3 µM.

Q: What about the IC50 [1] of the same compound?
A: Its IC50 is 23.4 µM.

Q: And the IC50 [3]?
A: Its IC50 is 55 µM.

Q: Which IC50 [1] does the source give for CN(CCCC(c1ccccc1)c1ccccc1)C(CCO)C(=O)NCc1ccccc1 (stereo unspecified) here?
A: The IC50 was 36.3 µM.

Q: And the Activity [2]?
A: Its Activity is 79%.

Q: And the IC50 [3]?
A: The IC50 was 58.9 µM.

Q: For CN(CCCC(c1ccccc1)c1ccccc1)C(CCO)C(=O)NCc1ccc(Cl)cc1 (stereo unspecified), which IC50 [1] is on record?
A: Its IC50 is 22.9 µM.

Q: What about the Activity [2] of the same compound?
A: Its Activity is 67%.

Q: What about the IC50 [3] of the same compound?
A: The IC50 was 38.9 µM.

Q: Which Activity [8] does the source give for C[C@@H](O)C[C@H](C(=O)NCc1ccccc1Cl)N1CCC(=C(c2ccccc2)c2ccccc2)CC1 (relative stereo) here?
A: Its Activity is 79%.

Q: What about the Activity [5] of the same compound?
A: Its Activity is 69%.

Q: And the Activity [2]?
A: Its Activity is 99%.

Q: What about the Activity [7] of the same compound?
A: The Activity was 95%.

Q: And the Activity [6]?
A: The Activity was 99%.
